Measurements from patent US20110070174A1, “Benzoyl Peroxide and Sunscreen Agent Combination” (PruGen IP Holdings, Inc., priority 2009, published 2011).

Assays:
Type in all cases: physicochemical
[1] = Stability Study 2: BPO/sunscreen mixture, one month at room temperature; details: for 1 MONTH-RT (content) / 1 MONTH-RT (percent of initial, in brackets): Study 2, 1 month room temperature; for % INITIAL (percent of initial, in brackets) / % INITIAL (content): Study 2, initial; for % INITIAL (content): in BPO/sunscreen mixture
From the text: (§1) The stability provided by using the above formula and mixing process has heretofore been unmatched.

[2] = Stability Study 3: BPO/sunscreen mixture, one month at room temperature; details: for 1 MONTH-RT (content) / 1 MONTH-RT (percent of initial, in brackets): Study 3, 1 month room temperature; for % INITIAL (percent of initial, in brackets) / % INITIAL (content): Study 3, initial; for % INITIAL (content): in BPO/sunscreen mixture
From the text: as §1

[3] = Stability Study 1: BPO/sunscreen mixture, one month at room temperature; details: for 1 MONTH-RT (content) / 1 MONTH-RT (percent of initial, in brackets): Study 1, 1 month room temperature; for % INITIAL (percent of initial, in brackets) / % INITIAL (content): Study 1, initial; for % INITIAL (content): in BPO/sunscreen mixture
From the text: as §1

[4] = Stability Study 4: BPO/sunscreen mixture, one month at room temperature; details: for 1 MONTH-RT (content) / 1 MONTH-RT (percent of initial, in brackets): Study 4, 1 month room temperature; for % INITIAL (percent of initial, in brackets) / % INITIAL (content): Study 4, initial; for % INITIAL (content): in BPO/sunscreen mixture
From the text: as §1

[5] = Stability of sunscreen base and benzoyl peroxide each before mixing; details: each agent separately, one-month repeatable studies
From the text: as §1

[6] = Multiple one-month room temperature studies after mixing the agents together; details: BPO at various percentages
From the text: as §1

Row | SMILES | 1 MONTH-RT (content) [1] | 1 MONTH-RT (percent of initial, in brackets) [1] | % INITIAL (percent of initial, in brackets) [1] | % INITIAL (content) [1] | 1 MONTH-RT (content) [2] | 1 MONTH-RT (percent of initial, in brackets) [2] | % INITIAL (percent of initial, in brackets) [2] | % INITIAL (content) [2] | 1 MONTH-RT (content) [3] | 1 MONTH-RT (percent of initial, in brackets) [3] | % INITIAL (percent of initial, in brackets) [3] | % INITIAL (content) [3] | 1 MONTH-RT (content) [4] | 1 MONTH-RT (percent of initial, in brackets) [4] | % INITIAL (percent of initial, in brackets) [4] | % INITIAL (content) [4] | stability of each agent [5] | potency after mixing [6]
1 | COc1ccc(C(=O)CC(=O)c2ccc(C(C)(C)C)cc2)cc1 [Avobenzone] | 2.78% | 86% | 100% | 3.23% | 2.69% | 91.5% | 100% | 2.94% |  |  |  |  |  |  |  |  |  | 
2 | O=C(OOC(=O)c1ccccc1)c1ccccc1 [BPO, Benzoyl peroxide] | 8.07% | 94% | 100% | 8.55% | 6.48% | 107% | 100% | 6.02% | 7.76% | 108% | 100% | 7.16% | 7.76% | 108% | 100% | 7.16% | stable for at least one year | remained at full potency
3 | CCCCC(CC)COC(=O)C(C#N)=C(c1ccccc1)c1ccccc1 (stereo not shown) [Octocrylene] |  |  |  |  |  |  |  |  | 6.42% | 101% | 100% | 6.33% | 6.42% | 101% | 100% | 6.33% |  | 
